Source: patent US9308187B2, “Adhesive patch comprising diclofenac sodium” (HISAMITSU PHARMACEUTICAL CO., INC., priority 2012, dated 2016)
Like-named read-outs stand apart in the source and are kept apart here.

Experiment: Solubilities in a variety of solubilizers
Assay type: physicochemical
Settings: organic solvent or mixture
Experimental: Thus, in order to search for components which suppress the time-dependent crystallization of diclofenac and diclofenac sodium and which can comprise diclofenac sodium in the adhesive layer at a high concentration (3% by mass or greater) of diclofenac, the solubilities of diclofenac and diclofenac sodium were measured in a variety of solubilizers.

Measured: solubility

O=C(O)Cc1ccccc1Nc1c(Cl)cccc1Cl [diclofenac]
≥ 100 mg/mL: N-methylpyrrolidone (NMP), solvent N-methylpyrrolidone, read-out: solubility in N-methylpyrrolidone (NMP) | dimethyl sulfoxide (DMSO), solvent dimethyl sulfoxide, read-out: solubility in dimethyl sulfoxide (DMSO) | dipropylene glycol (DPG), solvent dipropylene glycol, read-out: solubility in dipropylene glycol (DPG) | polyethylene glycol (PEG-400), solvent polyethylene glycol, read-out: solubility in polyethylene glycol (PEG-400)
